Experimental data from publication PMC10337138 (Acta Neuropathologica Communications, 2023).

Legend:
Conditions in all cases: 1 mM ATP; inhibitor
[1] = target: MAPK12/P38G (Homo sapiens, UniProt P53778)
Experimental: (§1) Kinase selectivity panel Kinome profiling was conducted by AssayQuant Technologies (Marlboro, MA) using Sox chromophore technology and Sox-based peptide substrates developed for human kinases in a 384-well format. Compounds were tested at 1 µM in the presence of 1 mM ATP.

[2] = target: ERN1 (Homo sapiens, UniProt O75460)
Experimental: as §1

[3] = target: PAK2 (Homo sapiens, UniProt Q13177)
Experimental: as §1

[4] = target: T1, MNK1 (Homo sapiens, UniProt Q9BUB5)
T1 construct: gene MKNK1
Experimental: as §1

[5] = target: SGK2 (Homo sapiens, UniProt Q9HBY8)
Experimental: as §1

[6] = target: T2, NIM1 (Homo sapiens, UniProt Q8IY84)
T2 construct: gene NIM1K
Experimental: as §1

[7] = target: PRKD3 (Homo sapiens, UniProt O94806)
Experimental: as §1

[8] = target: MAP3K11 (Homo sapiens, UniProt Q16584)
Experimental: as §1

[9] = target: CSNK1G3/CK1G3 (Homo sapiens, UniProt Q9Y6M4)
Experimental: as §1

[10] = target: TAOK3 (Homo sapiens, UniProt Q9H2K8)
Experimental: as §1

[11] = target: TBK1 (Homo sapiens, UniProt Q9UHD2)
Experimental: as §1

[12] = target: PLK3 (Homo sapiens, UniProt Q9H4B4)
Experimental: as §1

[13] = target: T3, CSNK1AL/CK1A2 (Homo sapiens, UniProt Q8N752)
T3 construct: gene CSNK1A1L
Experimental: as §1

[14] = target: LATS1 (Homo sapiens, UniProt O95835)
Experimental: as §1

[15] = target: SLK (Homo sapiens, UniProt Q9H2G2)
Experimental: as §1

[16] = target: RPS6KB2/P70S6KB (Homo sapiens, UniProt Q9UBS0)
Experimental: as §1

[17] = target: CDC42BPA/MRCKA (Homo sapiens, UniProt Q5VT25)
Experimental: as §1

[18] = target: SIK1 (Homo sapiens, UniProt P57059)
Experimental: as §1

[19] = target: SGK3 (Homo sapiens, UniProt Q96BR1)
Experimental: as §1

[20] = target: CDK9/K (Homo sapiens, UniProt P50750)
Experimental: as §1

[21] = target: BRSK1 (Homo sapiens, UniProt Q8TDC3)
Experimental: as §1

[22] = target: T4, PDHK2 (Homo sapiens, UniProt Q15119)
T4 construct: gene PDK2
Experimental: as §1

[23] = target: PKN2 (Homo sapiens, UniProt Q16513)
Experimental: as §1

[24] = target: PTK2 (Homo sapiens, UniProt Q05397)
Experimental: as §1

[25] = target: ROCK1 (Homo sapiens, UniProt Q13464)
Experimental: as §1

[26] = target: CDK2/A2 (Homo sapiens, UniProt P24941)
Experimental: as §1

[27] = target: ITK (Homo sapiens, UniProt Q08881)
Experimental: as §1

[28] = target: CSNK1G1/CK1G1 (Homo sapiens, UniProt Q9HCP0)
Experimental: as §1

[29] = target: CAMK2B (Homo sapiens, UniProt Q13554)
Experimental: as §1

[30] = target: T5, DRAK1 (Homo sapiens, UniProt Q9UEE5)
T5 construct: gene STK17A
Experimental: as §1

[31] = target: PRKG2 (Homo sapiens, UniProt Q13237)
Experimental: as §1

[32] = target: SRPK2 (Homo sapiens, UniProt P78362)
Experimental: as §1

[33] = target: DYRK2 (Homo sapiens, UniProt Q92630)
Experimental: as §1

[34] = target: GRK7 (Homo sapiens, UniProt Q8WTQ7)
Experimental: as §1

[35] = target: EPHB2 (Homo sapiens, UniProt P29323)
Experimental: as §1

[36] = target: STK26/MST4 (Homo sapiens, UniProt Q9P289)
Experimental: as §1

[37] = target: STK24/MST3 (Homo sapiens, UniProt Q9Y6E0)
Experimental: as §1

[38] = target: CDK17 (Homo sapiens, UniProt Q00537)
Experimental: as §1

Chain of CSNK1G3/CK1G3 (Q9Y6M4 whole entry): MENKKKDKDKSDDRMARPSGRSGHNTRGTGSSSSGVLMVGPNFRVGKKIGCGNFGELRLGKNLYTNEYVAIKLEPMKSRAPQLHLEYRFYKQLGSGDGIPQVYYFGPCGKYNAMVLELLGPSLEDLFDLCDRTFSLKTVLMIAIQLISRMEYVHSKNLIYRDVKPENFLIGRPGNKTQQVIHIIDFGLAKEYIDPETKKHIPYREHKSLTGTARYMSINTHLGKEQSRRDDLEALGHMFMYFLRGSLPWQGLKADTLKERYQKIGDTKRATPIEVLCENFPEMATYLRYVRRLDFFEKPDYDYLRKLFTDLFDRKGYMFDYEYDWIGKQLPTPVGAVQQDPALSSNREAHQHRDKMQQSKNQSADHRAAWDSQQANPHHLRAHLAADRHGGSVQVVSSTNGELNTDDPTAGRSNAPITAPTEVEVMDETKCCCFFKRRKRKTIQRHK
Chain of CDC42BPA/MRCKA (Q5VT25 whole entry): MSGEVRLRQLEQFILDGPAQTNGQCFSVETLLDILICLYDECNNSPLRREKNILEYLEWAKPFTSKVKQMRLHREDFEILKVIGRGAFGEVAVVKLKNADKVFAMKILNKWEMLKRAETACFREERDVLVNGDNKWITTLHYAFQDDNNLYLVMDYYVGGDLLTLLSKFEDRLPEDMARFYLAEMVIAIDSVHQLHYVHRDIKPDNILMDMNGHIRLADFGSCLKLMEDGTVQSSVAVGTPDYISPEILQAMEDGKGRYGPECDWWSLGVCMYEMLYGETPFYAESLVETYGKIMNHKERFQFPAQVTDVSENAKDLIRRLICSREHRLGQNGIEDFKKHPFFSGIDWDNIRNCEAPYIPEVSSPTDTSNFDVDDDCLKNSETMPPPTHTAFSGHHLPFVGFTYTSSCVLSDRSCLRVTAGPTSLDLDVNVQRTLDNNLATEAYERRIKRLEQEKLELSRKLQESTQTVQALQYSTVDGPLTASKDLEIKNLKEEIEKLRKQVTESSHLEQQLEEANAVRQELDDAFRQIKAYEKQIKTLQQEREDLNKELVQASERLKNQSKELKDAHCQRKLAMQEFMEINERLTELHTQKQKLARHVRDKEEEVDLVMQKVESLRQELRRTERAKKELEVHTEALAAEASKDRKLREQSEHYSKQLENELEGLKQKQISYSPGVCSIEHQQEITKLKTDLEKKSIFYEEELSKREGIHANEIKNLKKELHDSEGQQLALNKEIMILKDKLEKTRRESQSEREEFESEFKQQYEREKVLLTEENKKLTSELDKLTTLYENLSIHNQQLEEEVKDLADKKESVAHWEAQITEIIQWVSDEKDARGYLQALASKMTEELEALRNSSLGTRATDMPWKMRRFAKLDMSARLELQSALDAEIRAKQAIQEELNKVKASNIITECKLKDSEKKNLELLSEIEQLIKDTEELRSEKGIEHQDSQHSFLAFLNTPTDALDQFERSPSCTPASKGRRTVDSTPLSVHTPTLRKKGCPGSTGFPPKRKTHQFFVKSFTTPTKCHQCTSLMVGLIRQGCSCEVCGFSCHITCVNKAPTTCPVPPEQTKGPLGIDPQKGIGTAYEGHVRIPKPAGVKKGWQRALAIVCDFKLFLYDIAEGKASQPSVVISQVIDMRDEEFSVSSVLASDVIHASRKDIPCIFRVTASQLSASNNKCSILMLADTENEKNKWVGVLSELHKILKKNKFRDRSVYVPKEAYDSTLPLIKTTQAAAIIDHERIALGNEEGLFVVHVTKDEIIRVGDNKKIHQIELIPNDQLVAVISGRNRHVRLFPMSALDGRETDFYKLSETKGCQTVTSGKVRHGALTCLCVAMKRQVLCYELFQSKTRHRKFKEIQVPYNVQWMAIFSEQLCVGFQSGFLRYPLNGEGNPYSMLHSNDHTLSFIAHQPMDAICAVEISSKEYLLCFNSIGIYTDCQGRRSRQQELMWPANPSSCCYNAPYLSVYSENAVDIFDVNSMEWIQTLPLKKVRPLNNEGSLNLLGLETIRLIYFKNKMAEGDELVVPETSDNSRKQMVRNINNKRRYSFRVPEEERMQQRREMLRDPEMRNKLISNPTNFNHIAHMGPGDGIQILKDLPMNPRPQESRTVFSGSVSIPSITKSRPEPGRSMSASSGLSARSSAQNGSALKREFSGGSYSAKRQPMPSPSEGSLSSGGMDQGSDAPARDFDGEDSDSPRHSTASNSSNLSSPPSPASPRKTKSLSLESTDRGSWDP
Chain of PAK2 (Q13177 whole entry): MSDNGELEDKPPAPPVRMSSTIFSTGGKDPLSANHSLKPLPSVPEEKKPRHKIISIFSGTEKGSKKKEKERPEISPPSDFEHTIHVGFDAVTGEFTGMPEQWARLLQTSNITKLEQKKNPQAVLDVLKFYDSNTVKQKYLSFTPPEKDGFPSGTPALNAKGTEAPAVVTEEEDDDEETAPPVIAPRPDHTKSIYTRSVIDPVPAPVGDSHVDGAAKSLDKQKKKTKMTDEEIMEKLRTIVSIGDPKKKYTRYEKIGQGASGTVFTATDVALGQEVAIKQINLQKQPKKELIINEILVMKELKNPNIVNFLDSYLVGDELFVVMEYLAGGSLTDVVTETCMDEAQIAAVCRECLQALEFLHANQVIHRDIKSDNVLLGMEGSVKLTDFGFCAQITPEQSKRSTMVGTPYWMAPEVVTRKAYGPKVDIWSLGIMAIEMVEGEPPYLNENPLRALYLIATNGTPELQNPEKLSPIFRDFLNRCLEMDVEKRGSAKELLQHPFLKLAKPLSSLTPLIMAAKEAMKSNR
Chain of CSNK1G1/CK1G1 (Q9HCP0 whole entry): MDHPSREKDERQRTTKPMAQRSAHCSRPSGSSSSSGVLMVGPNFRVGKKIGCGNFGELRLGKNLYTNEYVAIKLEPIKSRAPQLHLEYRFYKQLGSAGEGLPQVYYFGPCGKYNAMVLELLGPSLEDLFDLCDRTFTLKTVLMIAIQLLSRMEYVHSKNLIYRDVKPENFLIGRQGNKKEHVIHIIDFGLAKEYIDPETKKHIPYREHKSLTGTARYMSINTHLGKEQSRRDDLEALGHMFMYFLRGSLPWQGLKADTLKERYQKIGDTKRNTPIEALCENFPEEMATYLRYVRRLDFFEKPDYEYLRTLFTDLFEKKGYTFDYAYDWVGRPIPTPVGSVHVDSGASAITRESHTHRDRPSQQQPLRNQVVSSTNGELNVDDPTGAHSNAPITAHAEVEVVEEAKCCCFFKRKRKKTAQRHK
Chain of SGK3 (Q96BR1 whole entry): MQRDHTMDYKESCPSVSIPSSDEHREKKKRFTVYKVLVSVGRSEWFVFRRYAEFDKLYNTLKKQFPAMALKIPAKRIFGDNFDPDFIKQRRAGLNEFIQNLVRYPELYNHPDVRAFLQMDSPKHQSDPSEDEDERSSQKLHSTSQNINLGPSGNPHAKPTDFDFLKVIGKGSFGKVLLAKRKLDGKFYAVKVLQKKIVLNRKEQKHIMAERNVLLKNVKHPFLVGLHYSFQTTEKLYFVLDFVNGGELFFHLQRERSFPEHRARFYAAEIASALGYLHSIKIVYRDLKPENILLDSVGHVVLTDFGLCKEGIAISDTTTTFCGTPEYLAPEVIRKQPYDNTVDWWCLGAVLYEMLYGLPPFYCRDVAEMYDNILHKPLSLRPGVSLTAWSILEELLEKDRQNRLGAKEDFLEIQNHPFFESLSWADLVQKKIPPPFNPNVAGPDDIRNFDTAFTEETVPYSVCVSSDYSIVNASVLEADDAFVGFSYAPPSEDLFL
Chain of ITK (Q08881 whole entry): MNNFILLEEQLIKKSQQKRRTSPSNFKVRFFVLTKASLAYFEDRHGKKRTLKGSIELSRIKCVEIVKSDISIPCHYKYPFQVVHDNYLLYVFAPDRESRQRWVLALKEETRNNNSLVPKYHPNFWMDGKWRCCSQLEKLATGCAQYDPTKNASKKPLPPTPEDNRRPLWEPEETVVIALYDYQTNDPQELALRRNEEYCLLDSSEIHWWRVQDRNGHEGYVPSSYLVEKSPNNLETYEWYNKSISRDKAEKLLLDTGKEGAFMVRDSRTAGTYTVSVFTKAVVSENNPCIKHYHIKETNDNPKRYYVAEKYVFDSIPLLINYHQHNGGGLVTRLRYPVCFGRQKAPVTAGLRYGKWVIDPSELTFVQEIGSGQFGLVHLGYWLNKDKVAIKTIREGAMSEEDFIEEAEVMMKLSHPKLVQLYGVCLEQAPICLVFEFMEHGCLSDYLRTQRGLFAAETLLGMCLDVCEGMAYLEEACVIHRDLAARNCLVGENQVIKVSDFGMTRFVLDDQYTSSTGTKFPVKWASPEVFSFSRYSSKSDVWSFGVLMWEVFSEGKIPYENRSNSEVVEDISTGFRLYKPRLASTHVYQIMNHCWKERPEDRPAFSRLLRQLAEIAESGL
T5 sequence (Q9UEE5 whole entry): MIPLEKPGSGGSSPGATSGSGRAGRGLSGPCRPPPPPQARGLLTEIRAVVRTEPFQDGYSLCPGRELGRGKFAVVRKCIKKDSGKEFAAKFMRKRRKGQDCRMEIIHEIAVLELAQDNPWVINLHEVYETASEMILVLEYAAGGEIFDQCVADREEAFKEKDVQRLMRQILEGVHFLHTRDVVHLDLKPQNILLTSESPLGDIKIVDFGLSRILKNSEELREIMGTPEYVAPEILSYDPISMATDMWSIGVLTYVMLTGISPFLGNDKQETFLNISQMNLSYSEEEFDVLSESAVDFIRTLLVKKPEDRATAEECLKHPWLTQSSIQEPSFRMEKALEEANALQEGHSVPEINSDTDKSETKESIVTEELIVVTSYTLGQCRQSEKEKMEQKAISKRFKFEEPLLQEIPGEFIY
Chain of MAPK12/P38G (P53778 whole entry): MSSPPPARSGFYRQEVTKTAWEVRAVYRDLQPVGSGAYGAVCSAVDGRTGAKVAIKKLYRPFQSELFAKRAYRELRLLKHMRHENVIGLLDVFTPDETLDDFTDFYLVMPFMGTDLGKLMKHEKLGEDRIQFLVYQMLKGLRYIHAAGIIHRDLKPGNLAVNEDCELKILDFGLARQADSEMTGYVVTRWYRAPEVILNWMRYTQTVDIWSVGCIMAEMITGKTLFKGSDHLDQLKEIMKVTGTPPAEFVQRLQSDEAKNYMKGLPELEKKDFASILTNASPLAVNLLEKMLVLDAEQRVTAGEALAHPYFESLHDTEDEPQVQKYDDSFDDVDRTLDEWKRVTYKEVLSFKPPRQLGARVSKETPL

SMILES: C=CC(=O)N1CCC[C@@H](n2nc(-c3ccc(Oc4ccccc4)cc3)c3c(N)ncnc32)C1 [Ibrutinib]
- 1 µM GBD00276 (ibrutinib), % inhibition [1]: 1.971%
- 1 µM GBD00276 (ibrutinib), % inhibition [2]: 1.571%
- 1 µM GBD00276 (ibrutinib), % inhibition [3]: 28.3%
- 1 µM GBD00276 (ibrutinib), % inhibition [4]: -4.408%
- 1 µM GBD00276 (ibrutinib), % inhibition [5]: -4.773%
- 1 µM GBD00276 (ibrutinib), % inhibition [6]: 12.91%
- 1 µM GBD00276 (ibrutinib), % inhibition [7]: 1.376%
- 1 µM GBD00276 (ibrutinib), % inhibition [8]: -6.395%
- 1 µM GBD00276 (ibrutinib), % inhibition [9]: 15.91%
- 1 µM GBD00276 (ibrutinib), % inhibition [10]: 9.158%
- 1 µM GBD00276 (ibrutinib), % inhibition [11]: -3.072%
- 1 µM GBD00276 (ibrutinib), % inhibition [12]: 16.45%
- 1 µM GBD00276 (ibrutinib), % inhibition [13]: 14.53%
- 1 µM GBD00276 (ibrutinib), % inhibition [14]: 11.97%
- 1 µM GBD00276 (ibrutinib), % inhibition [15]: -2.298%
- 1 µM GBD00276 (ibrutinib), % inhibition [16]: -2.111%
- 1 µM GBD00276 (ibrutinib), % inhibition [17]: -8.638%
- 1 µM GBD00276 (ibrutinib), % inhibition [18]: 2.135%
- 1 µM GBD00276 (ibrutinib), % inhibition [19]: 7.387%
- 1 µM GBD00276 (ibrutinib), % inhibition [20]: -8.235%
- 1 µM GBD00276 (ibrutinib), % inhibition [21]: 2.387%
- 1 µM GBD00276 (ibrutinib), % inhibition [22]: 7.038%
- 1 µM GBD00276 (ibrutinib), % inhibition [23]: 2.374%
- 1 µM GBD00276 (ibrutinib), % inhibition [24]: -4.777%
- 1 µM GBD00276 (ibrutinib), % inhibition [25]: 3.894%
- 1 µM GBD00276 (ibrutinib), % inhibition [26]: -9.861%
- 1 µM GBD00276 (ibrutinib), % inhibition [27]: 38.79%
- 1 µM GBD00276 (ibrutinib), % inhibition [28]: 4.449%
- 1 µM GBD00276 (ibrutinib), % inhibition [29]: 4.39%
- 1 µM GBD00276 (ibrutinib), % inhibition [30]: 18.73%
- 1 µM GBD00276 (ibrutinib), % inhibition [31]: 26.79%
- 1 µM GBD00276 (ibrutinib), % inhibition [32]: 8.374%
- 1 µM GBD00276 (ibrutinib), % inhibition [33]: 14.5%
- 1 µM GBD00276 (ibrutinib), % inhibition [34]: 3.056%
- 1 µM GBD00276 (ibrutinib), % inhibition [35]: 8.665%
- 1 µM GBD00276 (ibrutinib), % inhibition [36]: -9.161%
- 1 µM GBD00276 (ibrutinib), % inhibition [37]: -20.41%
- 1 µM GBD00276 (ibrutinib), % inhibition [38]: 5.795%
